Values quoted from earlier work in patent US20220152157A1 (priority 2020, published 2022).
Like-named read-outs stand apart in the source and are kept apart here.

Experiments:
influenza A virus = details: for membrane convergence of virus and host cell: influenza A, model MDCK cells
[1] = system: Toll-like receptors (TLR)
pulmonary inflammation = details: in vivo
virus [2] = details: mice
virus [3] = details: ferrets
[4] = system: human respiratory viruses; details: combined with ribavirin, in vitro
[5] = system: human respiratory viruses; details: combined with ribavirin, experimental animal models

| Compound | binding affinity for the influenza A virus (influenza A virus) | binding of the influenza A virus to the surrogate host cells (influenza A virus) | membrane convergence of virus and host cell (influenza A virus) | deactivation of Toll-like receptors (TLR) [1] | lowering of total inflammatory cell infiltrates (neutrophils and lymphocytes) (pulmonary inflammation) [%] | virus-induced proinflammatory cytokines (pulmonary inflammation) | viricidal effect (virus [2]) | viricidal effect (virus [3]) | antiviral effects of the combination [4] | antiviral effects of the combination [5] |
| --- | --- | --- | --- | --- | --- | --- | --- | --- | --- | --- |
| 1-palmitoyl-2-oleoyl-sn-glycero-3-phosphoglycerol [POPG] | high binding affinity | prevent the binding | inhibited | deactivators of Toll-like receptors | > 90 | reduced | viricidal | viricidal | – | – |
| CCCCC/C=C\C/C=C\C/C=C\C/C=C\CCCC(=O)OC(COC(=O)CCCCCCCCCCCCCCCCC)COP(=O)(O)OC1C(O)C(O)C(O)C(O)C1O (centres unmarked) [PI, phosphatidyl inositol] | high binding affinity | prevent the binding | inhibited | deactivators of Toll-like receptors | – | reduced | – | – | – | – |
| CC(N)C12CC3CC(CC(C3)C1)C2 (centres unmarked) [Rimantadine] | – | – | – | – | – | – | – | – | increased antiviral effects | increased antiviral effects |
| NC12CC3CC(CC(C3)C1)C2 [amantadine] | – | – | – | – | – | – | – | – | increased antiviral effects | increased antiviral effects |
